In patent US7531555B2, “Compositions and methods for selective inhibition of nicotine acetylcholine receptors” (University of Florida Research Foundation, Inc., priority 2003, dated 2009):
Values joined by “and” are separate entries in the source; they are usually repeats but may differ in a detail not shown here. Equal entries are not always repeated. Where two headings read alike, the source gives them in different places.

How the values were obtained:
Type in all cases: cell-based
[1] = biological target: T1, Rat α3β2β3 (Rattus norvegicus, UniProt P04757+P12390+P12391); test: Voltage clamp of Xenopus oocytes expressing α3β2β3 nAChR
T1 construct: expressed in transfected cells; host or cells: Xenopus laevis oocytes injected with subunit cRNAs; clones from Dr. Jim Boulter (UCLA)
T1 sequence (P04757 26-499): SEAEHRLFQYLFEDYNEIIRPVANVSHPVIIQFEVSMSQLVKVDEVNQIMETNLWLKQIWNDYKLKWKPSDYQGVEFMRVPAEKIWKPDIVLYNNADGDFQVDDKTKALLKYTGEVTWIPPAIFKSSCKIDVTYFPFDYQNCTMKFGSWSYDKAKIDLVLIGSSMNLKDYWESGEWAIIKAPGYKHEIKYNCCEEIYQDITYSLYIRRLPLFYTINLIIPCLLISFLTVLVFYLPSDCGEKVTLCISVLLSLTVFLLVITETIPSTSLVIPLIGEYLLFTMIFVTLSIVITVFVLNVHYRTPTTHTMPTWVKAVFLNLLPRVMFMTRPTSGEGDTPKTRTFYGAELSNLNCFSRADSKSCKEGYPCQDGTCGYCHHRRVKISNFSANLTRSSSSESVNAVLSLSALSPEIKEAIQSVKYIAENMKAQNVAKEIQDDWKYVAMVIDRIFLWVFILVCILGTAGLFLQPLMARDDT
T1 sequence (P12390 25-500): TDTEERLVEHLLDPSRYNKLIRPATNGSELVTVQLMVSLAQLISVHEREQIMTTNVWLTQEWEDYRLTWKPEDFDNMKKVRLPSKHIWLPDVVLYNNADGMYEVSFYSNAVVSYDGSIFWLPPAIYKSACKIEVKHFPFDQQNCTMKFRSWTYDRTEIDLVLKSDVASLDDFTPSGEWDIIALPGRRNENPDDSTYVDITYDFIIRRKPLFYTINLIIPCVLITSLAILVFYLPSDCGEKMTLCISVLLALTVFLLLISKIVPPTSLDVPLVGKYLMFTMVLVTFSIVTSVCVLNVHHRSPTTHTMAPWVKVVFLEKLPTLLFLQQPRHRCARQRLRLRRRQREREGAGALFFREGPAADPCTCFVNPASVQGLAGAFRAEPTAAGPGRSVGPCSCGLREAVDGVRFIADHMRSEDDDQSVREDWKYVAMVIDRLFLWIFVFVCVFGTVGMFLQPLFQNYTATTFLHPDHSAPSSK
T1 sequence (P12391 31-464): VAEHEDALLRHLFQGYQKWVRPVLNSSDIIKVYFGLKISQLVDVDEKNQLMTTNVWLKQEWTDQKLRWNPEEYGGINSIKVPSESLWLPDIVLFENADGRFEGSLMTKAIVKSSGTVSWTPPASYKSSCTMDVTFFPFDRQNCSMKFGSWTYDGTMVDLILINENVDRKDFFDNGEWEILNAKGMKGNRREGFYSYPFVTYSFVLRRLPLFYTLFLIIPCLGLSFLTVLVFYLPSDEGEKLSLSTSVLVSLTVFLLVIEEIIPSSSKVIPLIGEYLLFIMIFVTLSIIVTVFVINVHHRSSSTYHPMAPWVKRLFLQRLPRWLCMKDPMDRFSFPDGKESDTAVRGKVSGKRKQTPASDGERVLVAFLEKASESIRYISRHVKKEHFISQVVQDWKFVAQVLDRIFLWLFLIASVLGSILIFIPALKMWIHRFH
Method: (§1) Mature (>9 cm) female Xenopus laevis African frogs (NASCO, Ft. Atkinson, Wis.) were used as a source of oocytes. Prior to surgery, frogs were anesthetized by placing the animal in a 1.5 g/l solution of MS222 (3-aminobenzoic acid ethyl ester) for 30 minutes. Oocytes were removed from an incision made in the abdomen.
(§2) In order to remove the follicular cell layer, harvested oocytes were treated with 1.25 mg/ml collagenase from Worthington Biochemical Corporation (Freehold, N.J.) for 2 hours at room temperature in calcium-free Barth's solution (88 mM NaCl, 10 mM HEPES pH 7.6, 0.33 mM MgSO4, 0.1 mg/ml gentamicin sulfate). Subsequently, stage 5 oocytes were isolated and injected with 50 nl (5-20 ng) each of the appropriate subunit cRNAs. Recordings were made 2 to 15 days after injection.
(§3) Rat neuronal nAChR clones and mouse muscle nAChR cDNA clones were used. The wild-type clones were obtained from Dr. Jim Boulter (UCLA). The rat α6/3 (Dowell et al. J Neurosci, 2003, 23:8445-8452) clone was obtained from Michael McIntosh (University of Utah) and expressed in Xenopus oocytes in combinations with rat β2 and β3. […] The TM2 domain is understood to line the pore of the channel, with alpha helix structure. The 7′ position may actually be directed away from the actual pore lining, but this residue is highly conserved in all of the nAChR. It is valine in all of them except α9 (isoleucine) and β1, where it is alanine. The TM2 mutation in the α6/3 chimera was corrected by using QuickChange (Stratagene) according to their protocols. The corrected α6/3 chimera sequence was confirmed by restriction diagnostics and by automated fluorescent sequencing (University of Florida core facility). The corrected clone was expressed as above in Xenopus oocytes with β2 and β3 and compared to the wild-type α3 co-expressed with β2 and β3.
(§4) After linearization and purification of cloned cDNAs, RNA transcripts were prepared in vitro using the appropriate mMessage mMachine kit from Ambion Inc. (Austin, Tex.).
Electrophysiology. The majority of experiments were conducted using OpusXpress 6000A (Axon Instruments, Union City Calif.). OpusXpress is an integrated system that provides automated impalement and voltage clamp of up to eight oocytes in parallel. Cells were automatically perfused with bath solution, and agonist solutions were delivered from a 96-well plate. Both the voltage and current electrodes were filled with 3 M KCl. The agonist solutions were applied via disposable tips, which eliminated any possibility of cross-contamination. Drug applications alternated between ACh controls and experimental applications. Flow rates were set at 2 ml/min for experiments with α7 receptors and 4 ml/min for other subtypes. Cells were voltage-clamped at a holding potential of −60 mV. Data were collected at 50 Hz and filtered at 20 Hz. Agonist applications were 12 seconds in duration followed by 181-second washout periods for α7 receptors and 8 seconds with 241-second wash periods for other subtypes. For some experiments, particularly under conditions where residual inhibition precluded making repeated measurements from single cells (see below), manual oocyte recordings were made as previously described (Papke and Papke Br J of Pharmacol, 2002, 137:49-61). In brief, Warner Instruments (Hamden, Conn.) OC-725C oocyte amplifiers were used, and data were acquired with a minidigi or digidata 1200A with pClamp9 software (Axon Instruments). Sampling rates were between 10 and 20 Hz and the data were filtered at 6 Hz. […]

[2] = biological target: T2, Rat α4β2 (Rattus norvegicus, UniProt P09483+P12390); test: Voltage clamp of Xenopus oocytes expressing α4β2 nAChR
T2 construct: expressed in transfected cells; host or cells: Xenopus laevis oocytes injected with subunit cRNAs; clones from Dr. Jim Boulter (UCLA)
T2 sequence (P09483 31-630): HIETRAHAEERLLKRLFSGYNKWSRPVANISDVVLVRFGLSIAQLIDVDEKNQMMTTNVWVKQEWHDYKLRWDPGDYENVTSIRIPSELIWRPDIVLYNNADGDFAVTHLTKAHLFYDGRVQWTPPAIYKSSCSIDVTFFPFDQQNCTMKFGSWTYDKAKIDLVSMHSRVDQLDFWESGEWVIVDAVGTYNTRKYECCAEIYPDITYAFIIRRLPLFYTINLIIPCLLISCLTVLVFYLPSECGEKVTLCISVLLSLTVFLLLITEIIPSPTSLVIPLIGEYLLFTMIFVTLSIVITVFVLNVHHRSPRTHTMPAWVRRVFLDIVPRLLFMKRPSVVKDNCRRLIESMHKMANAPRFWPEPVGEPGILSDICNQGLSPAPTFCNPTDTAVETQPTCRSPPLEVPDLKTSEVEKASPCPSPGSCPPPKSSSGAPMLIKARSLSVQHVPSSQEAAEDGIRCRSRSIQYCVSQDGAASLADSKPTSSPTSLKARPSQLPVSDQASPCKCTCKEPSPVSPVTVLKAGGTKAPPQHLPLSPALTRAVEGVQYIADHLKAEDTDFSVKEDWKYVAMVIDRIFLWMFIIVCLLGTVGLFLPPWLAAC
T2 sequence (P12390 25-500): as the sequence (P12390 25-500) above
Method: as §1, §2, §3, §4
(§5) Electrophysiology. The majority of experiments were conducted using OpusXpress 6000A (Axon Instruments, Union City Calif.). OpusXpress is an integrated system that provides automated impalement and voltage clamp of up to eight oocytes in parallel. Cells were automatically perfused with bath solution, and agonist solutions were delivered from a 96-well plate. Both the voltage and current electrodes were filled with 3 M KCl. The agonist solutions were applied via disposable tips, which eliminated any possibility of cross-contamination. Drug applications alternated between ACh controls and experimental applications. Flow rates were set at 2 ml/min for experiments with α7 receptors and 4 ml/min for other subtypes. Cells were voltage-clamped at a holding potential of −60 mV. Data were collected at 50 Hz and filtered at 20 Hz. Agonist applications were 12 seconds in duration followed by 181-second washout periods for α7 receptors and 8 seconds with 241-second wash periods for other subtypes. For some experiments, particularly under conditions where residual inhibition precluded making repeated measurements from single cells (see below), manual oocyte recordings were made as previously described (Papke and Papke Br J of Pharmacol, 2002, 137:49-61). In brief, Warner Instruments (Hamden, Conn.) OC-725C oocyte amplifiers were used, and data were acquired with a minidigi or digidata 1200A with pClamp9 software (Axon Instruments). Sampling rates were between 10 and 20 Hz and the data were filtered at 6 Hz. Cells were voltage clamped at a holding potential of −50 mV.
(§6) Experimental protocols and data analysis. Each oocyte received two initial control applications of ACh, an experimental drug application (or co-application of ACh and TMPH), and then follow-up control application(s) of ACh. The control ACh concentrations for α1β1γδ, α3β4, α4β2, α3β2, α3β2α5, α3β2β3, α6/3β2β3 α6β4β3 and α7, receptors were 30 μM, 100 μM, 10 μM, 30 μM, 1 μM 100 μM 100 μM 100 μM and 300 μM, respectively. […]

[3] = biological target: T3, Rat α3β2 (Rattus norvegicus, UniProt P04757+P12390); test: Voltage clamp of Xenopus oocytes expressing rat α3β2 nAChR
T3 construct: expressed in transfected cells; host or cells: Xenopus laevis oocytes injected with subunit cRNAs; clones from Dr. Jim Boulter (UCLA)
T3 sequence (P04757 26-499): as the sequence (P04757 26-499) above
T3 sequence (P12390 25-500): as the sequence (P12390 25-500) above
Method: as §1, §2, §3, §4, §5, §6

[4] = biological target: Rat α3β4β3 (Rattus norvegicus, UniProt P04757+P12391+P12392); test: Voltage clamp of Xenopus oocytes expressing α3β4β3 nAChR; set-up: Rat neuronal nAChR clones and mouse muscle nAChR cDNA clones were used; The wild-type clones were obtained from Dr. Jim Boulter (UCLA)
Chain of Rat α3β4β3 (P04757 26-499): as the sequence (P04757 26-499) above
Chain of Rat α3β4β3 (P12392 21-495): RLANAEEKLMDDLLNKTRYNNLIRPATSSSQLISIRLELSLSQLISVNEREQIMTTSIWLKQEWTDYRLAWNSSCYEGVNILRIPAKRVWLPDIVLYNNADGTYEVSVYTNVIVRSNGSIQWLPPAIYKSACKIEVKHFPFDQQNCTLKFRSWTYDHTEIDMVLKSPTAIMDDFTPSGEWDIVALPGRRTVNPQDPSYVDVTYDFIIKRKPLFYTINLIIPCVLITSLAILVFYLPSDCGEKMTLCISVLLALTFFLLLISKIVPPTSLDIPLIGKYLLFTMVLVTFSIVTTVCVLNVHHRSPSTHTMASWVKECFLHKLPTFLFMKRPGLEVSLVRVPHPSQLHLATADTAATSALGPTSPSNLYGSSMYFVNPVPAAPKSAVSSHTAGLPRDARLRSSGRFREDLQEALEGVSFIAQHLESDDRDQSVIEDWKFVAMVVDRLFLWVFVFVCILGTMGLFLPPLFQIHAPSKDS
Chain of Rat α3β4β3 (P12391 31-464): as the sequence (P12391 31-464) above
Method: as §1, §2
Rat neuronal nAChR clones and mouse muscle nAChR cDNA clones were used. The wild-type clones were obtained from Dr. Jim Boulter (UCLA). The rat α6/3 (Dowell et al. J Neurosci, 2003, 23:8445-8452) clone was obtained from Michael McIntosh (University of Utah) and expressed in Xenopus oocytes in combinations with rat β2 and β3. […] The TM2 domain is understood to line the pore of the channel, with alpha helix structure. […] The corrected clone was expressed as above in Xenopus oocytes with β2 and β3 and compared to the wild-type α3 co-expressed with β2 and β3. […]

[5] = inhibition still present after 5-minute wash, read-out: IC50 (recovery)

`CCCCCCC(=O)OC1CC(C)(C)NC(C)(C)C1` [TMPH, 2,2,6,6-tetramethylpiperidin-4-yl heptanoate] was tested, and the IC50 ([1]; decrease in net charge, 100 μM ACh co-applied with TMPH, read-out: IC50 (area)) was 2700 ± 600 nM, the IC50 ([1]; decrease in peak current amplitude, 100 μM ACh co-applied with TMPH, read-out: IC50 (peak)) was 120000 ± 80000 nM and the IC50 [1, 5] was 4300 ± 1500 nM. The “IC50 net charge/IC50 peak” value ([1]; ratio) was 0.025, the “IC50 recovery/IC50 net charge” value ([1]; ratio) was 1.6 and the inhibition at 0.1 µM ([2]; 100 nM TMPH, after 3 applications at 10-minute intervals, read-out: inhibition after repeated co-applications of ACh with TMPH) was 90%. The “use-independent inhibition, TMPH applied alone” value ([2]; 1 μM TMPH alone versus co-applied with ACh) was “almost as effective as when co-applied with ACh”, the IC50 ([2]; decrease in net charge, 10 μM ACh co-applied with TMPH, single co-application, read-out: IC50 (area)) was 100 nM and 110 nM and the IC50 ([2]; decrease in peak current amplitude, 10 μM ACh co-applied with TMPH, read-out: IC50 (peak)) was 1400 nM. For the same molecule, the reversibility of inhibition ([2]; following a 5-minute wash) was “virtually no recovery”, the IC50 ([2]; from shift of the net charge inhibition curve so that 100 nM is the IC90, read-out: equilibrium IC50) was roughly 10 nM and the IC50 [2, 5] was 250 ± 80 nM. For the same molecule, the “IC50 net charge/IC50 peak” value ([2]; ratio) was 0.08, the “IC50 recovery/IC50 net charge” value ([2]; ratio) was 2.3 and the “use-independent inhibition, TMPH applied alone” value ([3]; 1 μM TMPH alone, after the washout period) was “no detectable effect”. The IC50 ([3]; decrease in net charge, 30 μM ACh co-applied with TMPH, read-out: IC50 (area)) was 440 ± 90 nM, the IC50 ([3]; decrease in peak current amplitude, 30 μM ACh co-applied with TMPH, read-out: IC50 (peak)) was 3700 ± 1200 nM and the reversibility of inhibition ([3]; following a 5-minute wash) was “virtually no recovery”. The IC50 [3, 5] was 230 ± 30 nM, the “IC50 net charge/IC50 peak” value ([3]; ratio) was 0.12 and the “IC50 recovery/IC50 net charge” value ([3]; ratio) was 0.52. The IC50 ([4]; inhibition still present after 5-minute wash, read-out: IC50 (recovery), 2 site model, site with approximately 15% of the fit) was 1000 nM and the “IC50 recovery/IC50 net charge, 2-site model, first value” ([4]; ratio, recovery site of IC50 1.0 μM) was 0.7.
